# Results as given in PubChem BioAssay (NCI).
#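 The compound was tested at five concentrations on cells cultured in 96-well plates, with a 48-hour exposure period. GI50 is the concentration that inhibits growth by half. TGI: concentration producing complete growth inhibition.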
# Key:
# Assay in all cases: growth of human tumour cells (NCI), 48 h
# 786-0 renal = system: 786-0 renal
# A498 renal = system: A498 renal
# A549 NSCLC = system: A549 NSCLC
# ACHN renal = system: ACHN renal
# BT-549 breast = system: BT-549 breast
# CAKI-1 renal = system: CAKI-1 renal
# CCRF-CEM leukemia = system: CCRF-CEM leukemia
# COLO 205 colon = system: COLO 205 colon
# DU-145 prostate = system: DU-145 prostate
# EKVX NSCLC = system: EKVX NSCLC
# HCC-2998 colon = system: HCC-2998 colon
# HCT-116 colon = system: HCT-116 colon
# HCT-15 colon = system: HCT-15 colon
# HL-60(TB) leukemia = system: HL-60(TB) leukemia
# HOP-62 NSCLC = system: HOP-62 NSCLC
# HOP-92 NSCLC = system: HOP-92 NSCLC
# HS 578T breast = system: HS 578T breast
# HT29 colon = system: HT29 colon
# IGROV1 ovarian = system: IGROV1 ovarian
# K-562 leukemia = system: K-562 leukemia
# KM12 colon = system: KM12 colon
# LOX IMVI melanoma = system: LOX IMVI melanoma
# M14 melanoma = system: M14 melanoma
# MALME-3M melanoma = system: MALME-3M melanoma
# MCF7 breast = system: MCF7 breast
# MDA-MB-231 breast = system: MDA-MB-231 breast
# MDA-MB-435 = system: MDA-MB-435
# MDA-MB-468 breast = system: MDA-MB-468 breast
# MOLT-4 leukemia = system: MOLT-4 leukemia
# NCI-H226 lung = system: NCI-H226 lung
compound,measurement,setting,value
COc1ccccc1NC(=O)N/N=C/c1c[nH]c2ccccc12,GI50,786-0 renal,1230 nM
same,TGI,786-0 renal,3.77 µM
same,GI50,A498 renal,10.1 µM
same,TGI,A498 renal,22.4 µM
same,GI50,A549 NSCLC,1220 nM
same,TGI,A549 NSCLC,18.2 µM
same,GI50,ACHN renal,3.13 µM
same,TGI,ACHN renal,15.8 µM
same,GI50,BT-549 breast,194 nM
same,TGI,BT-549 breast,4.69 µM
same,GI50,CAKI-1 renal,2530 nM
same,TGI,CAKI-1 renal,13.7 µM
same,GI50,CCRF-CEM leukemia,379 nM
same,TGI,CCRF-CEM leukemia,12.9 µM
same,GI50,COLO 205 colon,766 nM
same,TGI,COLO 205 colon,4.44 µM
same,GI50,DU-145 prostate,2560 nM
same,TGI,DU-145 prostate,12.4 µM
same,GI50,EKVX NSCLC,2200 nM
same,TGI,EKVX NSCLC,13.9 µM
same,GI50,HCC-2998 colon,1420 nM
same,TGI,HCC-2998 colon,14.2 µM
same,GI50,HCT-116 colon,405 nM
same,TGI,HCT-116 colon,3.61 µM
same,GI50,HCT-15 colon,348 nM
same,TGI,HCT-15 colon,12 µM
same,GI50,HL-60(TB) leukemia,304 nM
same,TGI,HL-60(TB) leukemia,3.51 µM
same,GI50,HOP-62 NSCLC,3.01 µM
same,TGI,HOP-62 NSCLC,18.9 µM
same,GI50,HOP-92 NSCLC,1850 nM
same,TGI,HOP-92 NSCLC,10.4 µM
same,GI50,HS 578T breast,3.05 µM
same,TGI,HS 578T breast,25.7 µM
same,GI50,HT29 colon,427 nM
same,TGI,HT29 colon,10.6 µM
same,GI50,IGROV1 ovarian,1660 nM
same,TGI,IGROV1 ovarian,20.5 µM
same,GI50,K-562 leukemia,229 nM
same,TGI,K-562 leukemia,16.4 µM
same,GI50,KM12 colon,574 nM
same,TGI,KM12 colon,11 µM
same,GI50,LOX IMVI melanoma,803 nM
same,TGI,LOX IMVI melanoma,14.9 µM
same,GI50,M14 melanoma,365 nM
same,TGI,M14 melanoma,10.8 µM
same,GI50,MALME-3M melanoma,559 nM
same,TGI,MALME-3M melanoma,16.9 µM
same,GI50,MCF7 breast,423 nM
same,TGI,MCF7 breast,12.3 µM
same,GI50,MDA-MB-231 breast,824 nM
same,TGI,MDA-MB-231 breast,12.6 µM
same,GI50,MDA-MB-435,226 nM
same,TGI,MDA-MB-435,647 nM
same,GI50,MDA-MB-468 breast,236 nM
same,TGI,MDA-MB-468 breast,2740 nM
same,GI50,MOLT-4 leukemia,381 nM
same,TGI,MOLT-4 leukemia,11.9 µM
same,GI50,NCI-H226 lung,4.11 µM
